Experiments:
HKU4-3CL^pro = HKU4-3CL^pro (Bat coronavirus HKU4 (BtCoV) (BtCoV/HKU4/2004), UniProt P0C6W3); format: biochemical
OC43-3CL^pro = OC43-3CL^pro (Human coronavirus OC43 (HCoV-OC43), UniProt P0C6X6); format: biochemical
PEDV-3CL^pro = PEDV-3CL^pro (Porcine epidemic diarrhea virus (strain CV777) (PEDV), UniProt P0C6Y4); experiment: biochemical; conditions: for inhibition at 100 µM: read-out: inhibition of PEDV-3CL^pro
HKU5-3CL^pro = HKU5-3CL^pro (Bat coronavirus HKU5 (BtCoV) (BtCoV/HKU5/2004), UniProt P0C6W4); format: biochemical
HKU9-3CL^pro = HKU9-3CL^pro (Bat coronavirus HKU9 (BtCoV) (BtCoV/HKU9), UniProt P0C6W5); format: biochemical
HKU1-3CL^pro = HKU1-3CL^pro (Human coronavirus HKU1 (isolate N1) (HCoV-HKU1), UniProt P0C6X2); experiment: biochemical
FIPV-3CL^pro = FIPV-3CL^pro (Feline coronavirus (strain FIPV WSU-79/1146) (FCoV), UniProt Q98VG9); experiment: biochemical
[1] = test system: Ten CoV 3CL^pro's (FIPV-, PEDV-, NL63-, HKU1-, OC43-, SARS-, HKU4-, HKU5-, HKU9-, IBV-3CL^pro); format: biochemical, coronaviruses (α-, β-, γ-CoV)
NL63-3CL^pro = NL63-3CL^pro (Human coronavirus NL63 (HCoV-NL63), UniProt P0C6X5); experiment: biochemical
SARS-3CL^pro = SARS-3CL^pro (Severe acute respiratory syndrome coronavirus (SARS-CoV), UniProt P0C6X7); format: biochemical
IBV-3CL^pro = IBV-3CL^pro (Avian infectious bronchitis virus (strain Beaudette) (IBV), UniProt P0C6Y1); format: biochemical
IBV-3CL^pro, sequence (P0C6Y1 2780-3086 limits assumed): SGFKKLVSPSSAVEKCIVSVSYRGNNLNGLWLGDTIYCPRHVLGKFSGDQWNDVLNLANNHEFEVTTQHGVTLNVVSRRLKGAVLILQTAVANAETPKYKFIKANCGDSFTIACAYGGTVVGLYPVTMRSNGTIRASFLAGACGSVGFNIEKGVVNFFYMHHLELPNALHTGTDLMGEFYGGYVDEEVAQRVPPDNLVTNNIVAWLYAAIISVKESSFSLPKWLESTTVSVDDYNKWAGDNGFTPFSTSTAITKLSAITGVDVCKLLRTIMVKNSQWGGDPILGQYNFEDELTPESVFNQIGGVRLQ

HKU9-3CL^pro, sequence (P0C6W5 3104-3409 limits assumed): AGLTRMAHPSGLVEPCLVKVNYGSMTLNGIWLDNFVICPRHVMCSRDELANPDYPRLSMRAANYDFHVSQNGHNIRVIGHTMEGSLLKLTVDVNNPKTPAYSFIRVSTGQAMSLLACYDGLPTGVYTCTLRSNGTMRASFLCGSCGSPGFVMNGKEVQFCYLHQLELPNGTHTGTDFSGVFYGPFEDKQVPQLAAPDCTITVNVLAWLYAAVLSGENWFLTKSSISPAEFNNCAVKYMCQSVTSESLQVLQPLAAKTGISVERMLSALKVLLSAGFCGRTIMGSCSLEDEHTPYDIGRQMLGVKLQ
HKU5-3CL^pro, sequence (P0C6W4 3339-3644 limits assumed): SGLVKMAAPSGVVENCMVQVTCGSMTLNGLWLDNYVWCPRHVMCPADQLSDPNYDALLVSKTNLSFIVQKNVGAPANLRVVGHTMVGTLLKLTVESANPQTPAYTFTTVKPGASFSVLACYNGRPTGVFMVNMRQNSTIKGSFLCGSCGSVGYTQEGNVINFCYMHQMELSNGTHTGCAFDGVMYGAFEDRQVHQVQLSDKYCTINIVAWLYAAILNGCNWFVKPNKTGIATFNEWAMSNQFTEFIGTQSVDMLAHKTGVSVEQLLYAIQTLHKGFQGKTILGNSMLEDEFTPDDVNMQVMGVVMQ
HKU1-3CL^pro, sequence (P0C6X2 3335-3637 limits assumed): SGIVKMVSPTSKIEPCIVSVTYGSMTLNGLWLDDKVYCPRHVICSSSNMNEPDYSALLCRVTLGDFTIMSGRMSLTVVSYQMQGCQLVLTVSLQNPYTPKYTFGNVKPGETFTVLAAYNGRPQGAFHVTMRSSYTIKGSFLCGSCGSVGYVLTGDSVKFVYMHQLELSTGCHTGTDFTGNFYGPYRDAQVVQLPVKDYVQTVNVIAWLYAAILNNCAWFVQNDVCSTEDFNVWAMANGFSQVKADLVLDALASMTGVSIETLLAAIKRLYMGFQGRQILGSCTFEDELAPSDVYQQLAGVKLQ
PEDV-3CL^pro, sequence (P0C6Y4 2998-3299 limits assumed): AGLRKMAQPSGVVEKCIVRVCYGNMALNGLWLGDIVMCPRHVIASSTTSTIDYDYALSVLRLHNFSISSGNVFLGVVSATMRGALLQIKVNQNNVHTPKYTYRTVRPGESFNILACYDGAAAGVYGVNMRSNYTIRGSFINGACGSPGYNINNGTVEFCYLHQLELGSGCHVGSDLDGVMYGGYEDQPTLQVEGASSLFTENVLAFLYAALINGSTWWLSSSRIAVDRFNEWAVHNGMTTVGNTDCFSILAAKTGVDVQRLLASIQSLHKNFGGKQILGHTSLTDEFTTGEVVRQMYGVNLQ
OC43-3CL^pro, sequence (P0C6X6 3247-3549 limits assumed): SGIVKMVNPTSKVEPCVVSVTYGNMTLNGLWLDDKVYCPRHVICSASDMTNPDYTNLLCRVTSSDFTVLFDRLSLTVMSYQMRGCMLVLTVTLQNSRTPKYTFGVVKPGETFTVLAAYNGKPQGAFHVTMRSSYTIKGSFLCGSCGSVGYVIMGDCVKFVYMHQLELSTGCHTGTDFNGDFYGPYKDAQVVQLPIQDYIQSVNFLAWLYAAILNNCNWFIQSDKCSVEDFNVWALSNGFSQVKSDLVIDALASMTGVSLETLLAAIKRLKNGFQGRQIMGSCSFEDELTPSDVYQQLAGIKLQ
HKU4-3CL^pro, sequence (P0C6W3 3292-3597 limits assumed): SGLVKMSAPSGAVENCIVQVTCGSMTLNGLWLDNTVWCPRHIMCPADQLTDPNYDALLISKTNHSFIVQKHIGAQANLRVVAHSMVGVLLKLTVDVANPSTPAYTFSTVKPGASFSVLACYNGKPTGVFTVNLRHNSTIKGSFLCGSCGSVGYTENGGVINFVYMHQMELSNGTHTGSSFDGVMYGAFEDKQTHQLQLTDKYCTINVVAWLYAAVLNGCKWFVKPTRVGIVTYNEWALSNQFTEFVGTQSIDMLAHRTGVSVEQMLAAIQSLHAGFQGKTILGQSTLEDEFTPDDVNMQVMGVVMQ
NL63-3CL^pro, sequence (P0C6X5 2940-3242 limits assumed): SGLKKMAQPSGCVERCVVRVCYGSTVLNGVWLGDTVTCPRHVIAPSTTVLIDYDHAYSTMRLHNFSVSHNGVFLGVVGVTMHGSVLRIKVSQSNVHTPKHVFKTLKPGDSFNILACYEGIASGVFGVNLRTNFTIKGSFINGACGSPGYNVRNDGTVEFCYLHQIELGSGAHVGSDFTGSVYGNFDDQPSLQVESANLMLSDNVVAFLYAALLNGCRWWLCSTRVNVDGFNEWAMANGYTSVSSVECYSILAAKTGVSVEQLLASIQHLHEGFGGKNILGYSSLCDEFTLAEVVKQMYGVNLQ
FIPV-3CL^pro, sequence (Q98VG9 2904-3205 limits assumed): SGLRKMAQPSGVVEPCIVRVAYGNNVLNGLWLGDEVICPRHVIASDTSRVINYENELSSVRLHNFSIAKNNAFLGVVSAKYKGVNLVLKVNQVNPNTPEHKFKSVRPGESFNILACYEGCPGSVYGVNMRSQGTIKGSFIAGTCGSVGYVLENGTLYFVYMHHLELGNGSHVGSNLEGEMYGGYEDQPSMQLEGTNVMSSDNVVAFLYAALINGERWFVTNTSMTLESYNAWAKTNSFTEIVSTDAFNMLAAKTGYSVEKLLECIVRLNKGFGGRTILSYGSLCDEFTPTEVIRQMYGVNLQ

Compound	IC50 (HKU4-3CL^pro)	IC50 (OC43-3CL^pro)	IC50 (PEDV-3CL^pro)	IC50 (HKU5-3CL^pro)	IC50 (HKU9-3CL^pro)	IC50 (HKU1-3CL^pro)	IC50 (FIPV-3CL^pro)	Gini Coefficient [1]	Score (performance metric score) [1]	IC50 (NL63-3CL^pro)	IC50 (SARS-3CL^pro)	inhibition at 100 µM (PEDV-3CL^pro)	inhibition of γ-CoV IBV-3CL^pro (IBV-3CL^pro)	inhibition at 100 µM (FIPV-3CL^pro; read-out: inhibition of FIPV-3CL^pro)	inhibition at 100 µM (NL63-3CL^pro; read-out: inhibition of NL63-3CL^pro)	inhibition at 100 µM (HKU1-3CL^pro; read-out: inhibition of HKU1-3CL^pro)	inhibition of NL63-3CL^pro (NL63-3CL^pro)	number of 3CL^pro's inhibited [1]
CC(C)(C)c1ccc(N(C(=O)c2c[nH]cn2)C(C(=O)NCc2ccccc2)c2cccnc2)cc1 (stereo not drawn) [Compound 48, N-(2-(benzylamino)-2-oxo-1-(pyridin-3-yl)ethyl)-N-(4-(tert-butyl)phenyl)-1H-imidazole-4-carboxamide]	26.1 ± 2.1 µM	46.5 ± 8 µM	3.4 ± 0.4 µM	24.8 ± 2.9 µM	40.4 ± 8.7 µM	8 ± 1.5 µM	19 ± 1.7 µM	0.17	3.5	26.4 ± 4.2 µM	6.6 ± 0.8 µM	–	–	–	–	–	–	–
CC(C)(C)NC(=O)C(c1ccsc1)N(C(=O)Cn1nnc2ccccc21)c1ccc(NC(=O)C2CC2)cc1 (stereo not drawn) [Compound 2P, reference compound]	3.8 ± 0.3 µM	24.4 ± 3.5 µM	–	3.5 ± 0.5 µM	–	–	–	0.29	8.5	–	–	≤ 50%	no compound, including the parent compounds 1P, 2P, and 3P, was found to be capable of inhibiting	≤ 50%	≤ 50%	–	–	–
CC(C)C(=O)Nc1ccc(N(C(=O)Cn2nnc3ccccc32)C(C(=O)NCc2ccccc2)c2cccc(F)c2)cc1 (stereo not drawn) [Compound 1P, reference compound]	–	6.9 ± 0.9 µM	–	1.2 ± 0.1 µM	–	–	6.7 ± 0.7 µM	0.31	5.7	–	1.6 ± 0.2 µM	≤ 50%	no compound, including the parent compounds 1P, 2P, and 3P, was found to be capable of inhibiting	–	–	≤ 50%	–	–
CC(C)(C)CNC(=O)C(c1cccnc1)N(C(=O)c1c[nH]cn1)c1ccc(C(C)(C)C)cc1 (stereo not drawn) [Compound 44, N-(4-(tert-butyl)phenyl)-N-(2-(neopentylamino)-2-oxo-1-(pyridin-3-yl)ethyl)-1H-imidazole-4-carboxamide]	4.2 ± 0.2 µM	15.6 ± 1 µM	1.4 ± 0.1 µM	3.6 ± 0.3 µM	9.1 ± 0.8 µM	9 ± 0.8 µM	12.5 ± 0.8 µM	–	–	8.2 ± 0.5 µM	6.3 ± 0.5 µM	–	–	–	–	–	–	–
CC(C)(C)c1ccc(N(C(=O)c2c[nH]cn2)C(C(=O)NC2CCCC2)c2cccnc2)cc1 (stereo not drawn) [Compound 47, N-(4-(tert-butyl)phenyl)-N-(2-(cyclopentylamino)-2-oxo-1-(pyridin-3-yl)ethyl)-1H-imidazole-4-carboxamide]	1.9 ± 0.1 µM	7.7 ± 0.8 µM	0.7 ± 0.03 µM	2.5 ± 0.2 µM	6.4 ± 0.5 µM	3.4 ± 0.4 µM	6.9 ± 0.5 µM	–	–	6.3 ± 0.5 µM	1.7 ± 0.2 µM	–	–	–	–	–	–	–
CC(C)Cc1ccc(N(C(=O)c2c[nH]cn2)C(C(=O)NC(C)(C)C)c2cccnc2)cc1 (stereo not drawn) [Compound 38, N-(2-(tert-butylamino)-2-oxo-1-(pyridin-3-yl)ethyl)-N-(4-isobutylphenyl)-1H-imidazole-4-carboxamide]	7.7 ± 0.7 µM	24.4 ± 3.1 µM	15.5 ± 1.8 µM	10.9 ± 0.9 µM	18 ± 3.3 µM	15.4 ± 1.5 µM	61.1 ± 13.9 µM	0.21	4.5	–	7 ± 0.6 µM	–	–	–	–	–	not tolerated	–
CC(C)CNC(=O)C(c1cccnc1)N(C(=O)c1c[nH]cn1)c1ccc(C(C)(C)C)cc1 (stereo not drawn) [Compound 43, N-(4-(tert-butyl)phenyl)-N-(2-(isobutylamino)-2-oxo-1-(pyridin-3-yl)ethyl)-1H-imidazole-4-carboxamide]	4.6 ± 0.3 µM	12.4 ± 1 µM	1.6 ± 0.1 µM	5.8 ± 0.8 µM	10.5 ± 1.1 µM	5.8 ± 0.8 µM	16.2 ± 1.3 µM	–	–	13.5 ± 0.8 µM	5.9 ± 0.5 µM	–	–	–	–	–	–	–
CC(C)(C)NC(=O)C(c1cccnc1)N(C(=O)c1c[nH]cn1)c1ccc(C(C)(C)C)cc1 (stereo not drawn) [Compound 3P, reference compound]	–	–	–	–	–	–	–	0.13	2.7	–	–	–	no compound, including the parent compounds 1P, 2P, and 3P, was found to be capable of inhibiting	–	–	–	–	–
CC(C)(C)NC(=O)C(c1cccnc1)N(C(=O)c1c[nH]cn1)c1ccc(C2CCC2)cc1 (stereo not drawn) [Compound 40, N-(2-(tert-butylamino)-2-oxo-1-(pyridin-3-yl)ethyl)-N-(4-cyclobutylphenyl)-1H-imidazole-4-carboxamide]	9.6 ± 0.7 µM	13.7 ± 1.3 µM	11.2 ± 1.5 µM	8.7 ± 1.2 µM	18.2 ± 2.2 µM	6.6 ± 1.2 µM	27 ± 3.1 µM	0.16	3.6	–	9.9 ± 1.2 µM	–	–	–	–	–	–	eight of ten
